Assay results: patent US4536335A, “Carbapenem antibiotics” (Bristol-Myers Company, priority 1983, dated 1985)
Values after ≈ are worked out from the molar mass of the structure shown. Like-named read-outs stand apart in the source and are kept apart here.

How the values were obtained:
K. pneumoniae A-9664 = experiment: In vitro MIC, tube dilution; assay type: cell-based; conditions: Nutrient Broth, overnight incubation at 37° C., additional data table
[1] = system: S. aureus A-9606 (Pen-res.); experiment: In vitro MIC, tube dilution; assay type: cell-based; conditions: Nutrient Broth, overnight incubation at 37° C., additional data table
K. pneumoniae A20468 = experiment: In vitro MIC, tube dilution; assay type: cell-based; conditions: Nutrient Broth, overnight incubation at 37° C., additional data table
S. pneumoniae A-9585 = experiment: In vitro MIC, tube dilution; assay type: cell-based; conditions: overnight incubation at 37° C., additional data table
S. marcescens A20019 = experiment: In vitro MIC, tube dilution; assay type: cell-based; conditions: Nutrient Broth, overnight incubation at 37° C., additional data table
P. mirabilis A-9900 = experiment: In vitro MIC, tube dilution; assay type: cell-based; conditions: Nutrient Broth, overnight incubation at 37° C., additional data table
E. cloacae A-9656 = experiment: In vitro MIC, tube dilution; assay type: cell-based; conditions: Nutrient Broth, overnight incubation at 37° C., additional data table
[2] = Half-life in phosphate buffer solution; assay type: physicochemical; conditions: 37° C.
Protocol: A solution of para-nitrobenzyl 3-[2-(N-methylthiomorpholinium diphenylphosphate)ethylthio]-6α-[1'-(R)-hydroxyethyl]-7-oxo-1-azabicyclo[3.2.0]hept-2-ene-2-carboxylate (1.31 g, 1.76 mmol) in 0.1 M pH 7.4 phosphate buffer (48.8 mL), tetrahydrofuran (20 mL) and diethyl ether (20 mL) was hydrogenated over 10% pd/C (1.5 g) in a Parr shaker for 1 h at 40 psi. The reaction mixture was diluted with diethyl ether (40 mL) and the phases were separated. The organic phase was washed with water (2×5 mL). The aqueous phases were combined, filtered through a #52 hardened filter paper, washed with diethyl ether (2×20 mL) and pumped under vacuum. The aqueous solution was poured on a silica gel reverse phase column and the desired carbapenem was eluted with 5% acetonitrile-water.
To a solution of p-nitrobenzyl (5R,6S)-3-[2-(1-methylmorpholino)ethylthio]-6-[(R)-1-hydroxyethyl]-7-oxo-1-azabicyclo[3.2.0]hept-2-ene-2-carboxylate diphenylphosphate (0.360 g, 0.49 mmol) in 13 mL of phosphate buffer (0.05 M pH 7.4) was added 0.36 g of 10% palladium-on-charcoal, 20 mL of tetrahydrofuran and 20 mL of diethyl ether. This mixture was hydrogenated (Parr) at 32 psi for 1 h. The mixture was filtered through Celite and the filter pad was washed with H2 O and diethyl ether. The aqueous phase was separated and the pH was adjusted to 7.0 with additional pH 7.4 phosphate buffer. After removing residual organic solvents in vacuo the aqueous solution was applied to a C18 reverse-phase column.
To a solution of (5R,6S)paranitrobenzyl 3-[2-(1,4-dimethyl-1-piperazinium)ethylthio]-6-[1-(R)-hydroxyethyl]-7-oxo- 1-azabicyclo[3.2.0]hept-2-ene-2-carboxylate diphenylphosphate (0.47 g, 0.623 mmol) in wet tetrahydrofuran (25 mL) was added diethyl ether (25 mL), potassium phosphate monobasic-sodium hydroxide buffer (13 mL, pH 7.22) and 10% palladium on charcoal (0.47 g). The resulting mixture was hydrogenated at 23° C. under 40 psi for 1 h. The two layers were separated and the organic layer was extracted with water (2×7 mL).
To a cold (-10° C.) solution of (5R,6S)-3-[2 -(N-methyl-thiomorpholinium)ethylthio]-6-[1-(R)-hydroxyethyl]-7-oxo-1-azabicyclo(3.2.0)-hept-2-ene-2-carboxylate (608 mg, 1.65 mmol) in a 1:1 mixture of acetonitrile-water (9 mL) was added m-chloroperbenzoic acid (334.8 mg, 1.65 mmol) in small portion over a 1 hour period. The mixture was then diluted with water (15 mL) and washed with diethyl ether (3×15 mL).
A mixture of (5R,6S) paranitrobenzyl 3-[2-(1,4,4-trimethyl-1-piperazinium)ethylthio]-6-[1R-hydroxyethyl]-7-oxo- 1-azabicyclo(3.2.0)hept-2-ene-2-carboxylate bischloride (0.40 g, 0.68 mmol), phosphate buffer (30 mL, 0.05M, pH 7.0), tetrahydrofuran (10 mL), ether (30 mL) and 10% palladium on charcoal (0.40 g) was hydrogenated at 23° C. under 35 psi for 1 h. The two phases were separated. The organic phase was extracted with water (10 mL).

S. aureus A-9537 = experiment: In vitro MIC, tube dilution; assay type: cell-based; conditions: overnight incubation at 37° C., additional data table; for MIC: Staphylococcus aureus
P. rettgeri A22424 = experiment: In vitro MIC, tube dilution; assay type: cell-based; conditions: Nutrient Broth, overnight incubation at 37° C., additional data table
P. aeruginosa A20481 = experiment: Protective effect in the intramuscular treatment of infected mice (PD50); assay type: in vivo; conditions: Pseudomonas aeruginosa, A20481, im; mice infected i.p. (Ex. 2: 1 × 10^5 organisms), treated i.m. 0 and 2 h postinfection
P. aeruginosa A-9843a [3] = experiment: as above; assay type: in vivo; conditions: Pseudomonas aeruginosa, A9843A, im, read-out: PD50/treatment, P. aeruginosa A9843A
Protocol: The PD50 (dose in mg/kg required to give protection to 50% of the infected mice) is indicated.
Treatment Schedule: Mice were treated i.m. with drugs 0 and 2 hours post-infection; 5 mice per dose were used for each test
*For compound of Ex. 2, mice were infected i.p. with 2 × 10^9
compounds of Ex. 4 and 5, mice were infected i.p. with ~9 ×
were treated i.m. with drugs 0 and 2 h postinfection.

P. aeruginosa A-9843A [4] = experiment: In vitro MIC, tube dilution; assay type: cell-based; conditions: Nutrient Broth, overnight incubation at 37° C., additional data table
E. cloacae A-9659 = experiment: In vitro MIC, tube dilution; assay type: cell-based; conditions: Nutrient Broth, overnight incubation at 37° C., additional data table
Source text: N-formimidoyl thienamycin was included as a comparison compound.

S. faecalis A20688 = experiment: In vitro MIC, tube dilution; assay type: cell-based; conditions: Nutrient Broth, overnight incubation at 37° C., additional data table
P. vulgaris A21559 = experiment: In vitro MIC, tube dilution; assay type: cell-based; conditions: Nutrient Broth, overnight incubation at 37° C., additional data table
P. aeruginosa A21213 = experiment: In vitro MIC, tube dilution; assay type: cell-based; conditions: Nutrient Broth, overnight incubation at 37° C., additional data table
E. coli A20341-1 = experiment: In vitro MIC, tube dilution; assay type: cell-based; conditions: Nutrient Broth, overnight incubation at 37° C., additional data table
P. morganii A15153 = experiment: In vitro MIC, tube dilution; assay type: cell-based; conditions: Nutrient Broth, overnight incubation at 37° C., additional data table
E. coli A15119 = experiment: In vitro MIC, tube dilution; assay type: cell-based; conditions: Nutrient Broth, overnight incubation at 37° C., additional data table
S. pyogenes A-9604 = experiment: In vitro MIC, tube dilution; assay type: cell-based; conditions: Nutrient Broth, overnight incubation at 37° C., additional data table
[5] = Blood levels in mice after intramuscular administration; assay type: in vivo; conditions: mouse, blood, im, 20 mg/kg, intramuscular dose of 20 mg/kg
Source text: Compounds were solubilized in 0.1 M phosphate buffer pH 7. Values are fro
a single test; 4 mice used per compound.
*t1/2 refers to halflife in minutes
**AUC refers to the area under the blood concentrationtime curve
(§1) Also shown is the urinary recovery in the mice.
Compounds were solubilized in 0.1 M phosphate buffer, pH 7.
Values based on a single test; 4 mice per compound.
*T1/2 refers to halflife in minutes

[6] = Urinary recovery after intramuscular administration to mice; assay type: in vivo; conditions: mouse, urine, im, 20 mg/kg, intramuscular dose of 20 mg/kg, 0-6 hour collection, read-out: Urine Recovery
Protocol: Compounds were solubilized in 0.1 M phosphate buffer pH 7. Values are from a single test; 4 mice per compound.
as §1
***Recovery based on 0-6 hour collection

C[C@@H](O)[C@H]1C(=O)N2C(C(=O)[O-])=C(SCC[N+]3(C)CCSCC3)C[C@H]12 [Example 2, 3-[2-(N-Methyl-thiomorpholinium)ethylthio]-6α-[1'-(R)-hydroxyethyl]-7-oxo-1-azabicyclo[3.2.0]-hept-2-ene-2-carboxylate]
MIC (K. pneumoniae A-9664; Klebsiella pneumoniae, A9664, tube dilution): 0.06 µg/mL (≈ 0.161 µM)
MIC ([1]; Staphylococcus aureus, read-out: MIC S. aureus (Pen-res.) A-9606): 0.016 µg/mL (≈ 0.043 µM)
MIC (K. pneumoniae A20468; Klebsiella pneumoniae, A20468, tube dilution): 0.13 µg/mL (≈ 0.349 µM)
MIC (S. pneumoniae A-9585; Streptococcus pneumoniae, A9585, Nutrient Broth): 0.001 µg/mL (≈ 0.00268 µM)
MIC (S. marcescens A20019; Serratia marcescens, A20019, tube dilution): 0.06 µg/mL (≈ 0.161 µM)
MIC (P. mirabilis A-9900; Proteus mirabilis, A9900, tube dilution): 0.06 µg/mL (≈ 0.161 µM)
MIC (E. cloacae A-9656; Enterobacter cloacae, A9656, tube dilution): 0.13 µg/mL (≈ 0.349 µM)
half-life ([2]; 0.1 m phosphate buffer, pH 7, 0.1 M pH 7 phosphate buffer, read-out: T1/2 (solution stability) (converted)): 17.7 h
MIC (S. aureus A-9537; A9537, 50% serum, tube dilution, read-out: MIC S. aureus-50% serum A-9537): 0.016 µg/mL (≈ 0.043 µM)
MIC (S. aureus A-9537; A9537, tube dilution, Nutrient Broth, read-out: MIC S. aureus A-9537): 0.008 µg/mL (≈ 0.0215 µM)
MIC (P. rettgeri A22424; Providencia rettgeri, A22424, tube dilution): 0.13 µg/mL (≈ 0.349 µM)
ED50 (P. aeruginosa A20481): 33 mg/kg
ED50 (P. aeruginosa A-9843a [3]): 4.7 mg/kg
MIC (P. aeruginosa A-9843A [4]; Pseudomonas aeruginosa, A9843A): 32 µg/mL (≈ 85.9 µM)
MIC (E. cloacae A-9659; Enterobacter cloacae, A9659, tube dilution): 0.13 µg/mL (≈ 0.349 µM)
MIC (S. faecalis A20688; Enterococcus faecalis, A20688, tube dilution): 0.25 µg/mL (≈ 0.671 µM)
MIC (P. vulgaris A21559; Proteus vulgaris, A21559, tube dilution): 0.03 µg/mL (≈ 0.0805 µM)
MIC (P. aeruginosa A21213; Pseudomonas aeruginosa, A21213, tube dilution): 8 µg/mL (≈ 21.5 µM)
MIC (E. coli A20341-1; Escherichia coli, A203411, tube dilution): 0.03 µg/mL (≈ 0.0805 µM)
MIC (P. morganii A15153; Morganella morganii, A15153, tube dilution, read-out: MIC M. morganii A15153): 0.06 µg/mL (≈ 0.161 µM)
MIC (E. coli A15119; Escherichia coli, A15119, tube dilution): 0.016 µg/mL (≈ 0.043 µM)
MIC (S. pyogenes A-9604; Streptococcus pyogenes, A9604, tube dilution): 0.002 µg/mL (≈ 0.00537 µM)

C[C@@H](O)[C@H]1C(=O)N2C(C(=O)[O-])=C(SCC[N+]3(C)CC[S+]([O-])CC3)C[C@H]12 (single isomer, unassigned) [Ex. 5 comp. A]
Cmax [5]: 10200 ng/mL
AUC ([5]; read-out: Blood AUC): 3100 ng·h/mL
half-life ([5]; read-out: Blood T1/2): 7 min
MIC K. pneumoniae A-9664 (K. pneumoniae A-9664; tube dilution): 0.06 µg/mL (≈ 0.154 µM)
dose excreted at 6 h [6]: 14 ± 1%
MIC S. aureus (Pen-res.) A-9606 [1]: 0.03 µg/mL (≈ 0.0772 µM)
MIC K. pneumoniae A20468 (K. pneumoniae A20468; tube dilution): 0.13 µg/mL (≈ 0.335 µM)
MIC S. pneumoniae A-9585 (S. pneumoniae A-9585; Nutrient Broth): 0.004 µg/mL (≈ 0.0103 µM)
MIC S. marcescens A20019 (S. marcescens A20019; tube dilution): 0.06 µg/mL (≈ 0.154 µM)
MIC P. mirabilis A-9900 (P. mirabilis A-9900; tube dilution): 0.13 µg/mL (≈ 0.335 µM)
MIC E. cloacae A-9656 (E. cloacae A-9656; tube dilution): 0.13 µg/mL (≈ 0.335 µM)
half-life ([2]; 0.065 m phosphate buffer, pH 7.4, 0.065 M, pH 7.4 phosphate buffer, read-out: T 1/2 (solution stability) (converted)): 12 h
MIC S. aureus-50% serum A-9537 (S. aureus A-9537; 50% serum, tube dilution): 0.03 µg/mL (≈ 0.0772 µM)
MIC S. aureus A-9537 (S. aureus A-9537; tube dilution, Nutrient Broth): 0.016 µg/mL (≈ 0.0412 µM)
MIC P. rettgeri A22424 (P. rettgeri A22424; tube dilution): 0.25 µg/mL (≈ 0.643 µM)
ED50 (P. aeruginosa A-9843a [3]): > 12.5 mg/kg
MIC P. aeruginosa A-9843a (P. aeruginosa A-9843A [4]): 32 µg/mL (≈ 82.4 µM)
MIC E. cloacae A-9659 (E. cloacae A-9659; tube dilution): 0.13 µg/mL (≈ 0.335 µM)
MIC S. faecalis A20688 (S. faecalis A20688; tube dilution): 0.05 µg/mL (≈ 0.129 µM)
MIC P. vulgaris A21559 (P. vulgaris A21559; tube dilution): 0.06 µg/mL (≈ 0.154 µM)
MIC P. aeruginosa A21213 (P. aeruginosa A21213; tube dilution): 16 µg/mL (≈ 41.2 µM)
MIC E. coli A20341-1 (E. coli A20341-1; tube dilution): 0.03 µg/mL (≈ 0.0772 µM)
MIC M. morganii A15153 (P. morganii A15153; tube dilution): 0.13 µg/mL (≈ 0.335 µM)
MIC E. coli A15119 (E. coli A15119; tube dilution): 0.03 µg/mL (≈ 0.0772 µM)
MIC S. pyogenes A-9604 (S. pyogenes A-9604; tube dilution): 0.004 µg/mL (≈ 0.0103 µM)
